“And” between values parts separate entries of the source, which are not always exact repeats. Equal entries are not always repeated. Toxic doses and inconclusive results are not listed.
System: P388 leukemia ip, CD2F1 mice, survival T/C
Experiment: NCI In Vivo Anticancer Drug Screen. Data for tumor model P388 Leukemia (intraperitoneal) in CD2F1 (CDF1) mice
Conditions: endpoint: median survival time, higher = longer survival
In short: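 Mice carrying the transplanted tumor received test compound or vehicle. Survival was recorded in each group, and the value is the treated-group measurement divided by that of the vehicle-treated control group.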

[1] = dose: 60.0 mg/kg/injection, schedule: Q01DX005 (ip), vehicle: saline with Tween-80
[2] = dose: 12.5 mg/kg/injection, schedule: Q01DX009 (ip), vehicle: saline with Tween-80
[3] = dose: 25.0 mg/kg/injection, schedule: Q01DX009 (ip), vehicle: saline with Tween-80
[4] = dose: 50.0 mg/kg/injection, schedule: Q01DX009 (ip), vehicle: saline with Tween-80
[5] = dose: 50.0 mg/kg/injection, schedule: Q01DX009 (ip), vehicle: other
[6] = dose: 100.0 mg/kg/injection, schedule: Q01DX009 (ip), vehicle: other
[7] = dose: 50.0 mg/kg/injection, schedule: Q01DX005 (ip), vehicle: saline with Tween-80
[8] = dose: 100.0 mg/kg/injection, schedule: Q01DX005 (ip), vehicle: saline with Tween-80
[9] = dose: 200.0 mg/kg/injection, schedule: Q01DX005 (ip), vehicle: saline with Tween-80
[10] = dose: 100.0 mg/kg/injection, schedule: Q01DX009 (ip), vehicle: saline with Tween-80
[11] = dose: 200.0 mg/kg/injection, schedule: Q01DX009 (ip), vehicle: saline with Tween-80
[12] = dose: 50.0 mg/kg/injection, schedule: Q01DX005 (ip), vehicle: Klucel (hydroxypropylcellulose) (HPC)
[13] = dose: 100.0 mg/kg/injection, schedule: Q01DX005 (ip), vehicle: Klucel (hydroxypropylcellulose) (HPC)
[14] = dose: 200.0 mg/kg/injection, schedule: Q01DX005 (ip), vehicle: Klucel (hydroxypropylcellulose) (HPC)

O=C(OC(c1ccccc1)(C(F)(F)F)C(F)(F)F)c1ccc(Cl)cc1
T/C (dose: 100.0 mg/kg/injection, schedule: Q04DX002 (ip), vehicle: Klucel (hydroxypropylcellulose) (HPC)): 92 % of control | T/C (dose: 200.0 mg/kg/injection, schedule: Q04DX002 (ip), vehicle: Klucel (hydroxypropylcellulose) (HPC)): 98 % of control | T/C (dose: 400.0 mg/kg/injection, schedule: Q04DX002 (ip), vehicle: Klucel (hydroxypropylcellulose) (HPC)): 97 % of control

COc1ccc(/C=N/NC(=S)NC23CC4CC(CC(C4)C2)C3)cc1OC
T/C (dose: 15.0 mg/kg/injection, schedule: Q01DX005 (ip), vehicle: saline with Tween-80): 93 % of control | T/C (dose: 30.0 mg/kg/injection, schedule: Q01DX005 (ip), vehicle: saline with Tween-80): 89 % of control | T/C [1]: 89 % of control

CON(C)CC(Cl)c1ccccc1 (centres undefined)
T/C [2]: 109 % of control | T/C [3]: 109 % of control | T/C [4]: 104 % of control

CC(=O)OC12CCCCC1C1(CCCCC1)N=[N+]2[O-] (centres undefined)
T/C (dose: 12.5 mg/kg/injection, schedule: Q01DX009 (ip), vehicle: other): 105 % of control | T/C (dose: 25.0 mg/kg/injection, schedule: Q01DX009 (ip), vehicle: other): 115 % of control | T/C [5]: 100 % of control | T/C [6]: 99 % of control | T/C (dose: 200.0 mg/kg/injection, schedule: Q01DX009 (ip), vehicle: other): 112 % of control

Cc1cc(=O)oc2c1cc(OCC(=O)OCCN1CCCCC1)c1occ(C)c12
T/C [7]: 99 % of control | T/C [8]: 92 % of control | T/C [9]: 93 % of control

CC(C)(CCC(=S)N1CCOCC1)c1ccccc1
T/C [3]: 111 % of control | T/C [4]: 96 % of control | T/C [10]: 105 % of control | T/C [11]: 105 % of control

CCOC(=O)C1=Nc2cccc3c(O)ccc1c23
T/C [7]: 113 % of control | T/C [8]: 109 % of control | T/C [9]: 111 % of control

c1ccc2c(c1)OC1(CCSCC1)O2
T/C (dose: 100.0 mg/kg/injection, schedule: Q01DX001 (ip), vehicle: saline with Tween-80): 95 % of control | T/C (dose: 200.0 mg/kg/injection, schedule: Q01DX001 (ip), vehicle: saline with Tween-80): 95 % of control | T/C (dose: 400.0 mg/kg/injection, schedule: Q01DX001 (ip), vehicle: saline with Tween-80): 100 % of control

CC(C)C(NC=O)C(=O)O (centres undefined)
T/C [12]: 101 % of control | T/C [7]: 91 % of control | T/C [13]: 101 % of control | T/C [8]: 98 % of control | T/C [14]: 95 % of control | T/C [9]: 94 % of control

CSC(SC)=C1CCCC(=C(SC)SC)C1=O
T/C [7]: 100 % of control | T/C [8]: 104 % of control | T/C [9]: 99 % of control

O=c1cccc2c1c1cc[nH]c3ccc(=O)n2c31
T/C (dose: 1.25 mg/kg/injection, schedule: Q01DX009 (ip), vehicle: saline with Tween-80): 98 % of control | T/C (dose: 2.5 mg/kg/injection, schedule: Q01DX009 (ip), vehicle: saline with Tween-80): 107 % of control | T/C (dose: 5.0 mg/kg/injection, schedule: Q01DX009 (ip), vehicle: saline with Tween-80): 102 % of control

COc1cc2c(c(OC)c1OC)-c1ccc(O)c(=O)cc1C(NC(C)=O)CC2 (centres undefined)
T/C (dose: 2.5 mg/kg/injection, schedule: Q01DX009 (ip), vehicle: Klucel (hydroxypropylcellulose) (HPC)): 100 % of control | T/C (dose: 5.0 mg/kg/injection, schedule: Q01DX009 (ip), vehicle: Klucel (hydroxypropylcellulose) (HPC)): 99 % of control | T/C (dose: 10.0 mg/kg/injection, schedule: Q01DX009 (ip), vehicle: Klucel (hydroxypropylcellulose) (HPC)): 100 % of control and 102 % of control | T/C (dose: 20.0 mg/kg/injection, schedule: Q01DX009 (ip), vehicle: Klucel (hydroxypropylcellulose) (HPC)): 107 % of control and 115 % of control | T/C (dose: 40.0 mg/kg/injection, schedule: Q01DX009 (ip), vehicle: Klucel (hydroxypropylcellulose) (HPC)): 108 % of control | T/C (dose: 80.0 mg/kg/injection, schedule: Q01DX009 (ip), vehicle: Klucel (hydroxypropylcellulose) (HPC)): 110 % of control

C(=C\c1cc2cc(C3=NCCN3)ccc2o1)/c1cc2cc(C3=NCCN3)ccc2o1
T/C (dose: 25.0 mg/kg/injection, schedule: Q04DX003 (ip), vehicle: suspension in saline): 154 % of control | T/C (dose: 50.0 mg/kg/injection, schedule: Q04DX003 (ip), vehicle: suspension in saline): 152 % of control | T/C (dose: 100.0 mg/kg/injection, schedule: Q04DX003 (ip), vehicle: suspension in saline): 101 % of control

COc1ccc2c(=O)c(Cc3c(-c4ccccc4)[nH]c4ccccc34)coc2c1
T/C [1]: 98 % of control | T/C (dose: 120.0 mg/kg/injection, schedule: Q01DX005 (ip), vehicle: saline with Tween-80): 91 % of control | T/C (dose: 240.0 mg/kg/injection, schedule: Q01DX005 (ip), vehicle: saline with Tween-80): 90 % of control

[Cl][Pt+2][Cl].[NH-]c1ccc(S(=O)(=O)O)cc1[NH-]
T/C (dose: 6.25 mg/kg/injection, schedule: Q04DX002 (ip), vehicle: saline with Tween-80): 102 % of control | T/C (dose: 12.5 mg/kg/injection, schedule: Q04DX002 (ip), vehicle: saline with Tween-80): 111 % of control | T/C (dose: 25.0 mg/kg/injection, schedule: Q04DX002 (ip), vehicle: saline with Tween-80): 119 % of control | T/C (dose: 50.0 mg/kg/injection, schedule: Q04DX002 (ip), vehicle: saline with Tween-80): 124 % of control

CC(=O)OCC1OC(Sc2nnc(-c3ccccc3)c(-c3ccccc3)n2)C(OC(C)=O)C(OC(C)=O)C1OC(C)=O (centres undefined)
T/C [4]: 107 % of control | T/C [10]: 98 % of control | T/C [11]: 100 % of control

CCCCCCOC(CN(C)C)C(Cl)(Cl)Cl (centres undefined)
T/C (dose: 50.0 mg/kg/injection, schedule: Q01DX009 (ip), vehicle: suspension in saline): 97 % of control | T/C (dose: 100.0 mg/kg/injection, schedule: Q01DX009 (ip), vehicle: suspension in saline): 96 % of control | T/C (dose: 400.0 mg/kg/injection, schedule: Q01DX009 (ip), vehicle: suspension in saline): 124 % of control

O=C1CNC(=O)N1CN1CCc2ccccc2C1
T/C [12]: 99 % of control | T/C [13]: 105 % of control | T/C [14]: 99 % of control

CC1=NN(c2ccccc2)C(=O)C1C1c2ccccc2S(=O)(=O)c2ccccc21 (centres undefined)
T/C (dose: 60.0 mg/kg/injection, schedule: Q01DX005 (ip), vehicle: Klucel (hydroxypropylcellulose) (HPC)): 97 % of control | T/C (dose: 120.0 mg/kg/injection, schedule: Q01DX005 (ip), vehicle: Klucel (hydroxypropylcellulose) (HPC)): 87 % of control

CN(C)/C=C(\C#N)C=O
T/C (dose: 18.75 mg/kg/injection, schedule: Q01DX009 (ip), vehicle: saline sonified): 118 % of control | T/C (dose: 37.5 mg/kg/injection, schedule: Q01DX009 (ip), vehicle: saline sonified): 109 % of control

C/C(=N\O)C1(C)CC=CCC1CO (centres undefined)
T/C [10]: 95 % of control | T/C [11]: 100 % of control | T/C (dose: 400.0 mg/kg/injection, schedule: Q01DX009 (ip), vehicle: saline with Tween-80): 100 % of control

CCCCCCC[CH2][Sn]([F])([F])[CH2]CCCCCCC
T/C (dose: 12.5 mg/kg/injection, schedule: Q04DX003 (ip), vehicle: saline): 102 % of control | T/C (dose: 25.0 mg/kg/injection, schedule: Q04DX003 (ip), vehicle: saline): 106 % of control and 108 % of control | T/C (dose: 50.0 mg/kg/injection, schedule: Q04DX003 (ip), vehicle: saline): 106 % of control and 116 % of control | T/C (dose: 100.0 mg/kg/injection, schedule: Q04DX003 (ip), vehicle: saline): 101 % of control and 109 % of control and 121 % of control

C=COC(=O)C(C)(CC)CC(C)C (centres undefined)
T/C [5]: 115 % of control | T/C [6]: 108 % of control

CCCCCCCC/C=C\CCCCCCCC(=O)OCCSCCOC(C)=O
T/C (dose: 50.0 mg/kg/injection, schedule: Q01DX009 (ip), vehicle: Klucel (hydroxypropylcellulose) (HPC)): 94 % of control | T/C (dose: 100.0 mg/kg/injection, schedule: Q01DX009 (ip), vehicle: Klucel (hydroxypropylcellulose) (HPC)): 101 % of control | T/C (dose: 200.0 mg/kg/injection, schedule: Q01DX009 (ip), vehicle: Klucel (hydroxypropylcellulose) (HPC)): 94 % of control

C/C(=C\C(=N\N=C(N)N)c1ccc(Cl)cc1)c1ccc(Cl)cc1
T/C (dose: 6.25 mg/kg/injection, schedule: Q01DX009 (ip), vehicle: saline with Tween-80): 118 % of control | T/C [2]: 98 % of control

CC1(c2ccc(Cl)cc2)OC(=O)C(=Cc2ccc([N+](=O)[O-])s2)C(=O)O1 (centres undefined)
T/C [10]: 122 % of control

O=C1C2CCCCC2C1(Cl)Cl (centres undefined)
T/C [3]: 103 % of control | T/C [4]: 99 % of control | T/C [10]: 118 % of control

C#CC(C)(O)C(C)(C)C (centres undefined)
T/C (dose: 25.0 mg/kg/injection, schedule: Q01DX009 (ip), vehicle: saline): 88 % of control | T/C (dose: 50.0 mg/kg/injection, schedule: Q01DX009 (ip), vehicle: saline): 98 % of control | T/C (dose: 100.0 mg/kg/injection, schedule: Q01DX009 (ip), vehicle: saline): 98 % of control

From PubChem BioAssay AID330 (DTP/NCI, 2004)
